# Experimental data reported in patent US11028127B2, “Peptides capable of reactivating p53 mutants” (Yeda Research and Development Co. Ltd., priority 2013, dated 2021).
# Like-named read-outs stand apart in the source and are kept apart here. Where no end group is shown, it is not given here.
# Key:
# [1] = tested on: SKBR3 cells expressing endogenous R175H p53; settings: SKBR3 ShCon cells, 5 ug/ml, 18 hours
# Protocol: FIG. 16 is a bar graph illustrating the effect of the indicated peptides on activation of Mut-p53 by measuring transactivation of p53 target genes as determined by qRT-PCR. SKBR3 ShCon cells and SKBR3 Shp53 cells knocked down for p53 expression were used. The cells were plated in 12-well dishes and the indicated peptides were added directly to the medium at a concentration of 5 ug/ml. 18 hours later cells were harvested, followed by qRT-PCR analysis. Expression level of p21, PUMA and Mdm2 was evaluated. FIG. 16 illustrates the relative fold induction of transcription of the tested genes in the various samples relative to their transcription level in non-treated cells. GAPDH mRNA was measured in parallel as a control.
# RNA was obtained using Macherey-Nagel NucleoSpin RNA II Kit on cells pellet according to the manufacturer's protocol. Aliquots of 0.4-1 μg were reverse transcribed using Bio-RT 2000 (Bio-Lab) and random hexamer primers. Quantitative real-time polymerase chain reaction (QRT-PCR) was performed on an ABI 7300 instrument (Applied Biosystems) using PerfeCTa SYBR Green FastMix ROX (Quanta). RT-PCR primers used are presented in Table 1 (primers sequences are presented 5′ to 3′).
# The tested peptides were further tested for their effect on p53 target gene expression in SKBR3 cells expressing endogenous R175H p53. […] In essence, these cells were plated in 12-well dishes; the indicated peptides were added directly to the medium at a concentration of 5 ug/ml. 18 hours later cells were harvested, followed by qRT-PCR analysis. Expression level of p21, PUMA and Mdm2 was evaluated. Expression of those genes in non-treated cells is considered background and all results were normalized to it, as well as to GAPDH.
# [2] = molecular target: T1, R175H p53 (Homo sapiens, UniProt P04637, R175H); test: TK-RGC-luc luciferase reporter assay in H1299 p53−/− cells; type: cell-based; settings: peptides added 24 hours after transfection, read at 48 hours
# T1 construct: a hot spot full length mutant p53 Mut-p53 R175H (R175H p53); expressed in transfected cells; host or cells: H1299 p53-/- cells, transient transfection
# Protocol: (§1) FIG. 12 is a bar graph illustrating the relative luciferase activity (cLuc/gLuc) as measured in the various tested samples. Transient transfection of H1299 p53^−/− cells was performed with plasmids expressing WT p53, R175H p53, R249S p53 or empty vector as control, together with TK-RGC-luc, where luciferase expression is under control of a tandem array of multiple p53-responsive elements. 24 hours after transfection, cells were treated with the test peptides. 48 hours after transfection, a sample of the culture medium was taken for bioluminescence measurements.
# (§2) The oligonucleotide (RGC-W) that has the sequence 5′-[…]-3′ (SEQ ID NO:362), and the oligonucleotide mutant RGC oligonucleotide (RGC-M) that has the sequence 5′-[…]-3′ (SEQ ID NO:363), are both derived from Kern et al. (Kern, S. E., et al., Identification of p53 as a sequence-specific DNA-binding protein. Science, 1991. 252(5013): p. 1708-11), and serve as a consensus binding sites for WT p53.
# (§3) These motifs were cloned into the KPN and Eco53IK sites in pCLuc Mini-TK 2 Vector (NEB, Cat No. N0324S ). The Luciferase construct was used to assess transcriptional activation of p53 in test cells.
# (§4) H1299 p53-null cells were cultured overnight and then transfected with the luciferase constructs using MaxFect Transfection Agent (Mediatech) according to the manufacturer's protocol. Prior to the transfection, cell medium was exchanged to OPTI-MEM.
# (§5) The cells were treated with different peptides 24 hours after transfection. After additional 24 hours, growth medium was collected to 96 black plates: 40 μl for Cluc assay, and 20 μl for Gluc assay. Assay was performed using Turner BioSystems Modulus Microplate. Value was calculated by Cluc/gluc/NT (non-treated cells).
# (§6) As additional screening strategy used to identify reactivating peptides was performed in vivo and is based on a reporter gene assay. It measures p53 transcriptional activity by quantifying the activity of a reporter gene, placed under the control of a promoter containing 17 repeats of a p53 consensus binding site (RGC). The luciferase assay is performed on living cells and therefore provides an indication on the effect of test peptides on Mut-p53 function in the context of intact cells.
# (§7) For the in vivo luciferase based screening, H1299 cells were used. Transient transfection of these p53^−/− cells was performed with vectors expressing WT p53, R175H p53, R249S p53 or empty vector as control (Suad, O., et al., Structural basis of restoring sequence-specific DNA binding and transactivation to mutant p53 by suppressor mutations. J. Mol. Biol., 2009. 385(1): p. 249-65). Cells were also co-transfected with TK-RGC-luc (CAT. No. NEB, N0324S). 24 hours after transfection, cells were treated with the test peptides. […]
# [3] = molecular target: T2, R249S p53 (Homo sapiens, UniProt P04637, R249S); test: as above; type: cell-based; settings: peptides added 24 hours after transfection, read at 48 hours
# T2 construct: expressed in transfected cells; host or cells: H1299 p53-/- cells, transient transfection
# Protocol: as §1, §2, §3, §4, §5, §6, §7
# [4] = molecular target: T3, Mut-p53 (R175H p53) (Homo sapiens, UniProt P04637, R175H); test: p53/DNA binding ELISA kit (R&D), binding to p53-RE DNA; type: biochemical; settings: H1299-R175H p53 cell extracts, vs background (NT)
# T3 construct: a hot spot full length mutant p53 Mut-p53 R175H (R175H p53); expressed in transfected cells; host or cells: H1299 (p53-null) cells stably overexpressing R175H p53; cell extract
# Text: A commercial p53/DNA binding kit (R&D) was used, according to manufacturer instructions. Briefly, 96 well plates were coated with anti-p53 antibody overnight. Cell extracts containing p53 were reacted with an oligonucleotide that contains a p53 consensus binding site, labeled with biotin, in the presence or absence (NT) of test peptides. WT p53 is expected to bind this DNA binding site as well as to the antibody coating the test wells of the plate. Excess p53 and oligos are washed away and streptavidin-HRP is used to quantify the amount of oligos in the well, which is proportional to the DNA bound by p53. TMB assay was performed to determine HRP levels (450 nm). The results are presented as relative absorbance (at 450 nm) (Y-Axis) of each tested sample. MCF7 and the H1299-Mut-p53 (ts) A135V cells serve as positive controls for WT p53.
# For these experiments, a commercial p53/DNA binding kit of “R&D” (Cat-DYC1355-5 Lot-1273366FA) was used, in accordance with manufacturer guide lines. Briefly, 96 well plates are coated with anti-p53 antibody overnight. Cell extracts containing p53 are reacted with an oligonucleotide that contains a p53 consensus binding site (provided in the kit), labeled with biotin, in the presence or absenc.
# e (NT) of test peptides. WT p53 is expected to bind this DNA binding site as well as to the antibody coating the test wells of the plate. Excess p53 and oligos were washed away and streptavidin-HRP was used to quantify the amount of oligos in the well, which is proportional to the DNA bound by p53. TMB assay was performed to determine HRP (ES001-1L-K) levels (450 nm).
# To measure the effect of the tested peptides on DNA binding of Mut-p53, a commercial ELISA kit, (R&D Systems DYC1355-5, Lot-1273366FA), was used as a high-throughput assay to quantify p53 activation. This kit uses a 96-well plate format. The kit was used according to manufacturer's instructions. Wells were coated with anti-p53 antibody overnight. Cell extracts containing p53 were reacted with a biotin labeled oligonucleotide containing a p53 consensus binding site (included in the kit). WT p53 is expected to bind this oligo as well as the antibody coating the wells. Excess p53 and oligo were washed away in wash buffer (0.05% Tween 20 in PBS, pH 7.2-7.4; R&D Systems, Catalog #WA126). Then, streptavidin-HRP (R&D Systems, Part 890803, provided in the kit) was added for 15-45 min to quantify the amount of oligo in the well, which is proportional to the DNA bound by p53. If the addition of a peptide to Mut-p53 extracts increases ELISA reading compared to background, this peptide is considered as functionally effective and may be selected for further analysis. […] As with the conformational screening, MCF7 and the H1299-Mut-p53 (ts) A135V cells served as positive controls for WT p53. Extracts were added to the wells coated with αp53-Ab, and after several washing steps, streptavidin-HRP was added for 1 hour, and then plates were washed again and TMB (substrate to HRP) assay was performed.
# [5] = molecular target: p53 DBD (Homo sapiens, UniProt P04637); settings: cited from earlier work
# [6] = tested on: H1299 cells stably transfected with Mut-p53 (ts) A135V; test: qRT-PCR of p53 target genes (p21, PUMA, Mdm2); type: cell-based; settings: 5 ug/ml, 18 hours, 37° C., relative to non-treated cells; positive control (32° C.) 9-11 fold
# Protocol: H1299 cells are p53 null and are widely used for p53 research. H1299 cells stably transfected with Mut-p53 (ts) A135V were used. […] 18 hours later cells were harvested, followed by extraction of RNA, cDNA synthesis and real time PCR analysis. The expression level of 3 representative p53 target genes, p21, PUMA and Mdm2, was examined.
# For the in vivo functional screening, several experimental systems were used. One system is based on H1299 cells, which are p53 null and are widely used for p53 research. H1299 cells stably transfected with Mut-p53 (ts) A135V were used. This form of p53 is a temperature sensitive mutant, which has a mutant conformation at 37° C. and a WT conformation at 32° C. […] 18 hours later cells were harvested, followed by extraction of RNA, cDNA synthesis and real time PCR analysis. The expression level of 3 representative p53 target genes was examined; p21, PUMA and Mdm2. Expression of genes in H1299-ts at 37° C. is considered as background level and all results are normalized to it, and also to the GAPDH housekeeping gene. Expression of genes in H1299-ts at 32° C. represents WT p53 conformation and therefore serves as a positive control.
# Several tested peptides indeed caused a significant increase in the expression of p21, PUMA and Mdm2. This was the case for pCAP-130, pCAP-135, pCAP-142, pCAP-144 and pCAP-148. […]
# [7] = Crystal violet viability assay; type: cell-based; settings: human, shp53 (Mut-p53 knockdown) subline
# Text: FIGS. 15A and 15B are bar graphs illustrating the effect of the various indicated peptides on the viability of breast cancer cells expressing different Mut-p53 isoforms, as determined by crystal violet assay. FIG. 15A: MDA-MB-231 cells expressing Mut-p53 with a mutation at position 280 of the DBD. FIG. 15B: SKBR3 cells expressing Mut-p53 with mutation at position 175 within the DBD. The bar graphs in FIGS. 15A and 15B show for each tested peptide the optical density reads at 595 nm, reflecting the number of cells in the plate after treatment, normalized to the non-treated (NT) samples.
# Cells were cultured in 96 wells plates with 2500-4000 cells/well in 0.1 ml and incubated overnight at 37° C. in order to adhere to the plate. Serial dilutions of different peptides (0.5 μg/ml) were added in 0.1 ml aliquots and the plates incubated for additional 48 h at 37° C. Then medium was removed and cell lysis was determined by staining the cells with crystal violet (0.5%) in methanol/water (1:4, v/v), 50 μl each well, for 10 min, followed by 3 washes with PBS. Afterwards, 10% acetic acid (50 μl) was added to each well and shaken for 10 min. Then, automatic plate reading was performed at 595 nm.
# Experiments using different cancer cell lines expressing endogenously different p53 mutant isoforms were performed. FIGS. 15A and 15B illustrate two representative experiments performed on MDA-MB-231 (FIG. 15A) and SKBR3 (FIG. 15B) breast cancer cells expressing Mut-p53 with mutations at positions 280 or 175, respectively, within the DNA Binding Domain (DBD). To examine the peptides' specificity for Mut-p53, the control used was such cells with a knockdown of Mut-p53 (shp53).
compound,measurement,setting,value
SFILFIRRGRLGRRRRRRRRR [pCAP-144],"transactivation of p53 target genes (p21, PUMA, Mdm2)",[1],among the highest transactivation levels
TRILCIVRKKRRQRRRRGDR [pCAP-75],transcription from TK-RGC-luc in the presence of R175H p53,[2],induce transcription from TK-RGC-luc
same,transcription from TK-RGC-luc in the presence of R249S p53,[3],induce transcription from TK-RGC-luc
same,binding of H1299-R175H p53 extracts to p53-RE DNA,[4],elevate the binding of H1299-R175H p53 extracts to p53-RE DNA
WNHHHSTPHPRRRRRRRRRR [pCAP-148],"transactivation of p53 target genes (p21, PUMA, Mdm2)",[1],among the highest transactivation levels
COc1ccc(/C=C/c2nc(NCCCN(C)C)c3ccccc3n2)cc1 [CP-31398],binding to the p53 DBD by NMR,[5],failed to detect any binding
"GGGGGGGGGRRRRRRR [pCAP-76, negative control peptide]","induction of transcription of p53 target genes p21, PUMA and Mdm2",[6],did not cause induction of p53 targets
IRGRIIRRRRRRRRRR [pCAP-155],cytotoxicity at 48 h,"[7]; MDA-MB-231 shp53 (Mut-p53 knockdown) breast cancer cells, read-out: reduction in viability, MDA-MB-231 shp53 cells",30 to 40%
same,cytotoxicity at 48 h,"[7]; SKBR3 shp53 (Mut-p53 knockdown) breast cancer cells, read-out: reduction in viability, SKBR3 shp53 cells",30 to 40%
same,"transactivation of p53 target genes (p21, PUMA, Mdm2)",[1],among the highest transactivation levels
